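These data come from cells grown in 96-well plates and exposed to compound for 48 hours at five concentrations. Abbreviation: GI50, concentration required for 50% inhibition of growth. TGI denotes the concentration required for complete inhibition of growth.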
What was measured:
Assay in all cases: growth of human tumour cells (NCI), 48 h
786-0 renal = system: 786-0 renal
COLO 205 colon = system: COLO 205 colon
EKVX NSCLC = system: EKVX NSCLC
K-562 leukemia = system: K-562 leukemia
LOX IMVI melanoma = system: LOX IMVI melanoma
M14 melanoma = system: M14 melanoma
MOLT-4 leukemia = system: MOLT-4 leukemia
SK-MEL-5 melanoma = system: SK-MEL-5 melanoma
SW-620 colon = system: SW-620 colon
MDA-MB-231 breast = system: MDA-MB-231 breast

| SMILES | TGI (786-0 renal) | TGI (COLO 205 colon) | TGI (EKVX NSCLC) | TGI (K-562 leukemia) | TGI (LOX IMVI melanoma) | TGI (M14 melanoma) | TGI (MOLT-4 leukemia) | TGI (SK-MEL-5 melanoma) | TGI (SW-620 colon) | GI50 (786-0 renal) | GI50 (COLO 205 colon) | GI50 (EKVX NSCLC) | GI50 (LOX IMVI melanoma) | GI50 (MDA-MB-231 breast) | TGI (MDA-MB-231 breast) | GI50 (SK-MEL-5 melanoma) | GI50 (SW-620 colon) | GI50 (K-562 leukemia) | GI50 (M14 melanoma) | GI50 (MOLT-4 leukemia) |
| --- | --- | --- | --- | --- | --- | --- | --- | --- | --- | --- | --- | --- | --- | --- | --- | --- | --- | --- | --- | --- |
| CC(=O)OCC1OC(N2C(=O)C(=O)c3cc(C)ccc32)C(OC(C)=O)C(OC(C)=O)C1OC(C)=O (centres undefined) | > 100 µM | > 100 µM | > 100 µM | > 100 µM | 34.3 µM | > 100 µM | > 100 µM | > 100 µM | > 100 µM | – | – | – | – | – | – | – | – | – | – | – |
| O=C1OC(CC(=O)c2ccc(Cl)c(Cl)c2)C(Cl)=C1Cl (centres undefined) | > 100 µM | > 100 µM | > 100 µM | > 100 µM | > 100 µM | > 100 µM | > 100 µM | > 100 µM | > 100 µM | – | – | – | – | – | – | – | – | – | – | – |
| COc1ccccc1N1C(=O)/C(=C/c2ccc(N(CCC#N)CCC#N)cc2C)N=C1c1cc([N+](=O)[O-])ccc1Cl | > 100 µM | > 100 µM | > 100 µM | > 100 µM | – | > 100 µM | > 100 µM | > 100 µM | – | – | – | – | – | – | – | – | – | – | – | – |
| CC(C)(C#N)c1cc(Cn2cncn2)cc(C(C)(C)C#N)c1 | > 10000 µM | > 10000 µM | > 10000 µM | – | > 10000 µM | – | – | > 10000 µM | > 10000 µM | 892 µM | 2070 µM | 400 µM | > 10000 µM | 539 µM | > 10000 µM | 106 µM | > 10000 µM | – | – | – |
| COC(=O)C1C(C(=O)OC)C2(OC)c3ccccc3-c3ccccc3C12 (centres undefined) | > 100 µM | 31.3 µM | > 100 µM | 76.9 µM | > 100 µM | > 100 µM | 43.6 µM | 78.7 µM | > 100 µM | – | – | – | – | – | – | – | – | – | – | – |
| COc1ccc(-c2onc(-c3ccc([N+](=O)[O-])cc3)c2C2=NCCN2)cc1 | 43 µM | > 100 µM | > 100 µM | > 100 µM | > 100 µM | > 100 µM | > 100 µM | > 100 µM | > 100 µM | – | – | – | – | – | – | – | – | – | – | – |
| Cn1c([N+](=O)[O-])cnc1/C=C1\Oc2ccccc2C1=O | 3.67 µM | 3.02 µM | – | 7.02 µM | 0.506 µM | 2.51 µM | 0.758 µM | 0.727 µM | 2.02 µM | 0.203 µM | 0.543 µM | – | 0.176 µM | 0.703 µM | 4.39 µM | 0.234 µM | 0.15 µM | 0.487 µM | 0.32 µM | 0.159 µM |
| O=C1c2ccccc2-c2cccc3ccc(Cc4ccc5ccccc5c4)c1c23 | > 100 µM | > 100 µM | > 100 µM | > 100 µM | – | > 100 µM | > 100 µM | > 100 µM | > 100 µM | – | – | – | – | – | – | – | – | – | – | – |
| CC[C@H](NC(=O)[C@H](C)NC)C(=O)N1C[C@@H](O)C[C@H]1Cc1c(-c2[nH]c3cc(F)ccc3c2C[C@@H]2C[C@H](O)CN2C(=O)[C@H](CC)NC(=O)[C@H](C)NC)[nH]c2cc(F)ccc12 | > 100 µM | > 100 µM | – | > 100 µM | > 100 µM | > 100 µM | > 100 µM | > 53.8 µM | > 100 µM | > 100 µM | > 55.8 µM | – | > 59.6 µM | 0.0349 µM | 2.18 µM | 26.2 µM | > 100 µM | 47.3 µM | > 100 µM | 74.4 µM |
| CCOC(=O)C(N)C[S][Sn]([CH3])([CH3])[Cl] (centres undefined) | > 100 µM | > 100 µM | > 100 µM | > 100 µM | > 100 µM | > 100 µM | > 100 µM | > 100 µM | > 100 µM | > 100 µM | > 100 µM | > 100 µM | 37 µM | – | – | > 100 µM | > 100 µM | 39.6 µM | > 100 µM | > 65.2 µM |
| Cc1cc(C)c([O-])c(CN(C)CCN(C)Cc2cc(C)cc(C)c2[O-])c1.O=C([O-])c1cccc(C(=O)[O-])n1.[Ti+4] | > 100 µM | 5.01 µM | > 100 µM | > 100 µM | – | > 100 µM | > 100 µM | > 100 µM | > 100 µM | 1.83 µM | 2.4 µM | 3.4 µM | – | 3.42 µM | > 100 µM | 2.9 µM | 2.89 µM | 2.67 µM | 1.7 µM | 3.12 µM |
| C=CCC(N[C@H](CO)c1ccccc1)c1ccc2ccccc2n1 (some centres undefined) | > 100 µM | > 100 µM | > 100 µM | > 100 µM | > 100 µM | > 100 µM | – | – | > 100 µM | > 100 µM | > 100 µM | > 100 µM | > 100 µM | > 100 µM | > 100 µM | – | > 100 µM | > 100 µM | > 100 µM | – |
| O=S(=O)(N/N=C/c1ccc(/C=N/NS(=O)(=O)c2ccccc2)cc1)c1ccccc1 | > 100 µM | 43.1 µM | > 100 µM | 98.5 µM | 51 µM | > 100 µM | 60.9 µM | > 100 µM | – | – | – | – | – | – | – | – | – | – | – | – |
| CCCCOC(=O)NC(=O)c1cn(CCCOC(=O)CCCCCCCCC(=O)OCCCn2cc(C(=O)NC(=O)OCCCC)c(=O)[nH]c2=O)c(=O)[nH]c1=O | > 100 µM | > 100 µM | > 100 µM | > 100 µM | > 100 µM | > 100 µM | > 100 µM | > 100 µM | > 100 µM | – | – | – | – | – | – | – | – | – | – | – |
| O=[N+]([O-])c1cccc(C2N3CCCCC3[C@@H]3c4[nH]c5ccccc5c4CCN23)c1 (some centres undefined) | 43.3 µM | 32.8 µM | 69.9 µM | 19.6 µM | – | 28 µM | > 100 µM | 27.2 µM | > 100 µM | – | – | – | – | – | – | – | – | – | – | – |
| CC(=O)c1cccc(N2COC(C)(C)c3nc4ccccc4n3C2)c1 | > 100 µM | > 100 µM | > 100 µM | > 100 µM | > 100 µM | > 100 µM | > 100 µM | – | > 100 µM | – | – | – | – | – | – | – | – | – | – | – |
| CC/C(C)=C1\CCC(CN2CCOCC2)C1=O (centres undefined) | 22.9 µM | – | 34 µM | > 100 µM | 30.5 µM | 31.4 µM | > 100 µM | 78.4 µM | 34.5 µM | – | – | – | – | – | – | – | – | – | – | – |
